Test results published in patent publication US12624017B2, “Salt form of isoquinolinone type compound as rock inhibitor and preparation method therefor” (GUANGZHOU OCUSUN OPHTHALMIC BIOTECHNOLOGY CO., LTD., priority 2020, dated 2026).

What was measured:
[1] = test system: New Zealand rabbits with normal intraocular pressure; test: Intraocular pressure reduction, normal intraocular pressure, eye drops in both eyes for 14 days (Operation I); assay type: in vivo, New Zealand white rabbits; conditions: for Change in intraocular pressure: vs negative control
Source text: An intraocular pressure reduction effect and potential ocular toxicity of the compound of formula (I) were inspected with rabbits with normal intraocular pressure by repeated administration of eye drops for 14 days.
Male New Zealand white rabbits, aged 97 to 127 days, weighted 2.6-3.5 kg, purchased from Pizhou Oriental Breeding Co., Ltd.
The Male New Zealand white rabbits were randomly divided into 7 groups according to body weights, 6 rabbits/group. The animals in Groups 1 to 7 were administrated dropwise with a solvent/control/test article in both eyes in an administration volume of 50 μL/eye, once a day for 14 consecutive days, and the day of first administration was recorded as Day 1. The intraocular pressures of the animals were measured before administration, as well as at 1, 2, 4, 6, 8 and 10 h after administration, respectively. On Days 2 to 14, the intraocular pressures of animals in the K-115 administration group were measured at 1 h after daily administration; and intraocular pressures of the animals in the remaining groups were measured at 4 h after daily administration.

[2] = Toxicokinetic test: active compound in plasma after 14 days of eye drops; assay type: in vivo, New Zealand white rabbits; conditions: for Concentration of active compound in plasma: 8.0 mg/ml eye drops, after 14 days of consecutive administration
Experimental: The rate of production of active pharmaceutical ingredients in plasma and exposure amount of the active pharmaceutical ingredients were detected after 14 days.
Male New Zealand white rabbits, aged 3 to 6 months, weighted 2.0 to 5.0 kg, purchased from Pizhou Oriental Breeding Co., Ltd.
After 14 days of consecutive administration, blood samples were collected at 0 hours (before administration) and at 0.5, 1, 2, 4, 8 and 24 hours after administration in the group of compound of formula (I) (8.0 mg/ml) at 14-15 days. Approximately 0.8 mL of whole blood was collected from the ear artery or the hindlimb saphenous vein (or other suitable site) of animal subjected to the toxicokinetic test and placed in a labeled blood collection tube with dipotassium EDTA (K2EDTA) as an anticoagulant. Plasma was obtained by centrifugation at 3000 rpm and 2° C. to 8° C. for 10 min within 60 minutes after blood collection. All samples were quantitatively detected for the content of the administrated compound in the plasma of the experimental animal by a liquid chromatography-mass spectrometry coupling technology.

[3] = 2.0 mg/mL, Day 1, 2 h after administration
[4] = 2.0 mg/mL, Day 1, 4 h after administration
[5] = 2.0 mg/mL, Day 1, 6 h after administration
[6] = 2.0 mg/mL, Day 1, 8 h after administration
[7] = 2.0 mg/mL, Day 1, 10 h after administration
[8] = 2.0 mg/mL, Day 1, before administration
[9] = 4.0 mg/mL once a day, Day 2, 4 h after daily administration
[10] = 4.0 mg/mL once a day, Day 3, 4 h after daily administration
[11] = 4.0 mg/mL once a day, Day 4, 4 h after daily administration
[12] = 4.0 mg/mL once a day, Day 5, 4 h after daily administration
[13] = 4.0 mg/mL once a day, Day 6, 4 h after daily administration
[14] = 4.0 mg/mL once a day, Day 7, 4 h after daily administration
[15] = 4.0 mg/mL, Day 1, 1 h after administration
[16] = 4.0 mg/mL, Day 1, 2 h after administration
[17] = 4.0 mg/mL, Day 1, 4 h after administration
[18] = 4.0 mg/mL, Day 1, 6 h after administration
[19] = 4.0 mg/mL, Day 1, 8 h after administration
[20] = 4.0 mg/mL, Day 1, 10 h after administration
[21] = 4.0 mg/mL, Day 1, before administration
[22] = 8.0 mg/mL once a day, Day 2, 4 h after daily administration
[23] = 8.0 mg/mL once a day, Day 3, 4 h after daily administration
[24] = 8.0 mg/mL once a day, Day 4, 4 h after daily administration
[25] = 8.0 mg/mL once a day, Day 5, 4 h after daily administration
[26] = 8.0 mg/mL once a day, Day 6, 4 h after daily administration
[27] = 8.0 mg/mL once a day, Day 7, 4 h after daily administration
[28] = 8.0 mg/mL, Day 1, 1 h after administration
[29] = 8.0 mg/mL, Day 1, 2 h after administration
[30] = 8.0 mg/mL, Day 1, 4 h after administration
[31] = 8.0 mg/mL, Day 1, 6 h after administration
[32] = 8.0 mg/mL, Day 1, 8 h after administration
[33] = 8.0 mg/mL, Day 1, 10 h after administration
[34] = 8.0 mg/mL, Day 1, before administration

## Cc1ccc(C(=O)OCn2cc(C)c3c(S(=O)(=O)N4CC[C@H](N)C4)cccc3c2=O)c(C)c1 [Compound of formula (I)]
[1]; [3]
  Average intraocular pressure in both eyes: 7.47 mmHg
  Change in intraocular pressure: 3.5 mmHg
[1]; [4]
  Average intraocular pressure in both eyes: 7.47 mmHg
  Change in intraocular pressure: 3.84 mmHg
[1]; [5]
  Average intraocular pressure in both eyes: 7.25 mmHg
  Change in intraocular pressure: 4.69 mmHg
[1]; [6]
  Average intraocular pressure in both eyes: 8.44 mmHg
  Change in intraocular pressure: 4.53 mmHg
[1]; [7]
  Average intraocular pressure in both eyes: 9.67 mmHg
  Change in intraocular pressure: 4.75 mmHg
[1]; [8]
  Average intraocular pressure in both eyes: 9.67 mmHg
  Change in intraocular pressure: 0.22 mmHg
[1]; [9]
  Average intraocular pressure in both eyes: 6.53 mmHg
  Change in intraocular pressure: 4.55 mmHg
[1]; [10]
  Average intraocular pressure in both eyes: 5.58 mmHg
  Change in intraocular pressure: 4.81 mmHg
[1]; [11]
  Average intraocular pressure in both eyes: 5.53 mmHg
  Change in intraocular pressure: 5.08 mmHg
[1]; [12]
  Average intraocular pressure in both eyes: 6.61 mmHg
  Change in intraocular pressure: 4.36 mmHg
[1]; [13]
  Average intraocular pressure in both eyes: 5.47 mmHg
  Change in intraocular pressure: 3.84 mmHg
[1]; [14]
  Average intraocular pressure in both eyes: 5.56 mmHg
  Change in intraocular pressure: 4.5 mmHg
[1]; 4.0 mg/mL once a day, Day 8, 4 h after daily administration
  Change in intraocular pressure: 4.53 mmHg
[1]; 4.0 mg/mL once a day, Day 9, 4 h after daily administration
  Change in intraocular pressure: 3.97 mmHg
[1]; 4.0 mg/mL once a day, Day 10, 4 h after daily administration
  Change in intraocular pressure: 4.67 mmHg
[1]; 4.0 mg/mL once a day, Day 11, 4 h after daily administration
  Change in intraocular pressure: 3.86 mmHg
[1]; 4.0 mg/mL once a day, Day 12, 4 h after daily administration
  Change in intraocular pressure: 3.64 mmHg
[1]; 4.0 mg/mL once a day, Day 13, 4 h after daily administration
  Change in intraocular pressure: 4.36 mmHg
[1]; 4.0 mg/mL once a day, Day 14, 4 h after daily administration
  Change in intraocular pressure: 4.64 mmHg
[1]; [15]
  Average intraocular pressure in both eyes: 10.44 mmHg
  Change in intraocular pressure: −0.13 mmHg
[1]; [16]
  Average intraocular pressure in both eyes: 7.81 mmHg
  Change in intraocular pressure: 3.16 mmHg
[1]; [17]
  Average intraocular pressure in both eyes: 6.47 mmHg
  Change in intraocular pressure: 4.84 mmHg
[1]; [18]
  Average intraocular pressure in both eyes: 6.22 mmHg
  Change in intraocular pressure: 5.72 mmHg
[1]; [19]
  Average intraocular pressure in both eyes: 7.33 mmHg
  Change in intraocular pressure: 5.64 mmHg
[1]; [20]
  Average intraocular pressure in both eyes: 8.64 mmHg
  Change in intraocular pressure: 5.78 mmHg
[1]; [21]
  Average intraocular pressure in both eyes: 9.67 mmHg
  Change in intraocular pressure: 0.22 mmHg
[1]; [22]
  Average intraocular pressure in both eyes: 6.33 mmHg
  Change in intraocular pressure: 4.75 mmHg
[1]; [23]
  Average intraocular pressure in both eyes: 5.78 mmHg
  Change in intraocular pressure: 4.61 mmHg
[1]; [24]
  Average intraocular pressure in both eyes: 5.97 mmHg
  Change in intraocular pressure: 4.64 mmHg
[1]; [25]
  Average intraocular pressure in both eyes: 6.42 mmHg
  Change in intraocular pressure: 4.55 mmHg
[1]; [26]
  Average intraocular pressure in both eyes: 5.56 mmHg
  Change in intraocular pressure: 3.75 mmHg
[1]; [27]
  Average intraocular pressure in both eyes: 5.28 mmHg
  Change in intraocular pressure: 4.78 mmHg
[1]; 8.0 mg/mL once a day, Day 8, 4 h after daily administration
  Change in intraocular pressure: 5.59 mmHg
[1]; 8.0 mg/mL once a day, Day 9, 4 h after daily administration
  Change in intraocular pressure: 4.25 mmHg
[1]; 8.0 mg/mL once a day, Day 10, 4 h after daily administration
  Change in intraocular pressure: 4.19 mmHg
[1]; 8.0 mg/mL once a day, Day 11, 4 h after daily administration
  Change in intraocular pressure: 4.16 mmHg
[1]; 8.0 mg/mL once a day, Day 12, 4 h after daily administration
  Change in intraocular pressure: 3.97 mmHg
[1]; 8.0 mg/mL once a day, Day 13, 4 h after daily administration
  Change in intraocular pressure: 4.72 mmHg
[1]; 8.0 mg/mL once a day, Day 14, 4 h after daily administration
  Change in intraocular pressure: 4.03 mmHg
[1]; [28]
  Average intraocular pressure in both eyes: 7.69 mmHg
  Change in intraocular pressure: 2.62 mmHg
[1]; [29]
  Average intraocular pressure in both eyes: 6.39 mmHg
  Change in intraocular pressure: 4.58 mmHg
[1]; [30]
  Average intraocular pressure in both eyes: 7.06 mmHg
  Change in intraocular pressure: 4.25 mmHg
[1]; [31]
  Average intraocular pressure in both eyes: 7.11 mmHg
  Change in intraocular pressure: 4.83 mmHg
[1]; [32]
  Average intraocular pressure in both eyes: 7.22 mmHg
  Change in intraocular pressure: 5.75 mmHg
[1]; [33]
  Average intraocular pressure in both eyes: 7.97 mmHg
  Change in intraocular pressure: 6.45 mmHg
[1]; [34]
  Average intraocular pressure in both eyes: 10.17 mmHg
  Change in intraocular pressure: −0.28 mmHg
[1]; all tested doses (0.5 to 8.0 mg/mL), compared with K-115
  Efficacy of single administration (conclusion): better efficacy
[1]; dose of 0.5 mg/mL, compared with K-115
  Intraocular pressure reduction effect on 14 days of consecutive administration (conclusion): significant intraocular pressure reduction effect
[2]; Group 1, 0.00 h (before administration)
  Concentration of active compound in plasma: BQL
[2]; Group 1, 8.00 h
  Concentration of active compound in plasma: BQL
[2]; Group 1, 8.00 h, listed as compound of formula (I)
  Concentration of active compound in plasma: below the detection limit
[2]; Group 1, 24.0 h
  Concentration of active compound in plasma: BQL
[2]; Group 2, 0.00 h (before administration)
  Concentration of active compound in plasma: BQL
[2]; Group 2, 8.00 h
  Concentration of active compound in plasma: BQL
[2]; Group 2, 24.0 h
  Concentration of active compound in plasma: BQL
[2]; high dose of 8 mg/mL, from plasma metabolite concentration
  System safety (conclusion): high system safety
